Measured values taken from US6359003B1 (Fumapharm AG, priority 1998, dated 2002).

What was measured:
Ehrlich ascites tumour = settings: mice; cited from earlier work
[1] = high dosages; parenterally, transdermally and especially perorally; cited from earlier work
[2] = test system: acute rejection of the graft (host-versus-graft reaction), rat kidney transplantation model; assay: Acute rejection model, rat kidney transplantation; type: in vivo; settings: 33.3 mg/kg/day, day -28 to +28
Protocol: (§1) The effect of calcium methyl fumarate for alleviating the host-versus-graft reaction both in acute and chronic rejection models was investigated on a rat kidney transplantation model.
In order to investigate the influence of calcium methyl fumarate on the acute rejection of the graft, animal experiments were carried out (on rats). For this purpose, two groups of rats were treated with calcium methyl fumarate (CaMF; dosage: 33.3 mg/kg/day) or a placebo for a total period of 56 days [28 days before the kidney transplantation (−28) to 28 days after transplantation (+28)]. The number of animals with results fit for evaluation were n=9 in the placebo group and n=12 in the verum group. After that, the survival time of the animals in days after the transplantation was evaluated.

[3] = test system: chronic rejection (host-versus-graft reaction), rat kidney transplantation model; assay: Chronic rejection model, rat kidney transplantation; type: in vivo; settings: for Creatinine: serum; for Creatinine / Proteinuria: week 10 after transplantation, cyclosporine 1.5 mg/kg/day s.c. day 0-9
From the text: as §1
In order to investigate the effect of calcium methyl fumarate on chronic rejection, three groups of rats received transplants (kidneys) in animal experiments. Groups 1 and 2 received a placebo (group 1) or calcium methyl fumarate (CaMF) (group 2) as active ingredient from day 28 before until day 28 after transplantation. The third group was given CaMF from day 30 to 60 after the kidney transplantation. All animals received cyclosporine from day 0 to 9 after the transplantation. The dosages administered were 1.5 mg/kg/day of cyclosporine (subcutaneously) and 33.3 mg/kg/day of CaMF (perorally).
The effect of the treatment was checked by measuring the creatinine levels in the serum, initially on day 0, 1, 3, 5, and 10 and then once a week, and by observing the urine protein levels which were measured once a week. In groups 1 and 2, n=10 animals each provided results suitable for evaluation; in group 3, n=9.

[4] = Group 2: 33.3 mg/kg/day perorally day -28 to +28, n=10
[5] = Group 3: 33.3 mg/kg/day perorally day +30 to +60, n=9

In the case of `O=C(O)/C=C/C(=O)O` [Fumaric acid], the “Growth of the Ehrlich ascites tumour” value (Ehrlich ascites tumour) is listed as “inhibits the growth”.
For `O=C(O)/C(O)=C(\O)C(=O)O` [dihydroxyl fumaric acid], the “Side effects and toxicity” value [1] is listed as “unacceptably severe side effects and high toxicity”.
In the case of `NC(=O)/C=C/C(N)=O` [fumaramide], the “Side effects and toxicity” value [1] is listed as “unacceptably severe side effects and high toxicity”.
For `N#C/C=C/C#N` [fumaronitrile], the “Side effects and toxicity” value [1] is listed as “unacceptably severe side effects and high toxicity”.
For calcium methyl fumarate [CaMF], the “Average survival time in days versus placebo (in words)” value [2] was “significant increase”, the “Number of surviving animals” value ([2]; >100 days after transplantation, n=12) was 4 and the “Average survival time” value ([2]; after kidney transplantation, n=12) was >42.3 ± 41.0 days. The “Number of surviving animals” value ([2]; day 6 after transplantation, n=12) was 12, the “Number of surviving animals” value ([2]; day 7 after transplantation, n=12) was 12 and the “Number of surviving animals” value ([2]; day 8 after transplantation, n=12) was 12. The “Number of surviving animals” value ([2]; day 9 after transplantation, n=12) was 11, the “Number of surviving animals” value ([2]; day 10 after transplantation, n=12) was 10 and the “Number of surviving animals” value ([2]; day 12 after transplantation, n=12) was 9. For the same compound, the “Number of surviving animals” value ([2]; day 13 after transplantation, n=12) was 8, the “Number of surviving animals” value ([2]; day 14 after transplantation, n=12) was 7 and the “Number of surviving animals” value ([2]; day 16 after transplantation, n=12) was 6. The “Number of surviving animals” value ([2]; day 17 after transplantation, n=12) was 5, the “Number of surviving animals” value ([2]; day 26 after transplantation, n=12) was 5 and the “Number of surviving animals” value ([2]; day 27 after transplantation, n=12) was 4. For the same compound, the “Damage to the kidneys (in words)” value ([3]; 10 weeks of follow-up, versus placebo) was “significant inhibition of damage to the kidneys”, the Creatinine [3, 4] was 55.7 ± 9.6 µmol/L and the Creatinine [3, 5] was 88.0 ± 42.4 µmol/L. For the same compound, the Proteinuria [3, 4] was 31.8 ± 18.4 mg/24 hrs and the Proteinuria [3, 5] was 52.5 ± 31.6 mg/24 hrs.
